Assay in all cases: biochemical
Holding throughout (design): Fluorogenic phosphatase assay, DiFMUP hydrolysis by recombinant PTPs, initial velocity, Ex/Em 355/460 nm
What all share (details): read-out: Inhibition by 20 µM polyphyllin D (%)

One experiment has as its target T1, PTPN9 (PTP-MEG2) (Homo sapiens, UniProt P43378).
T1 construct: 277-582
T1 sequence (P43378 1-593): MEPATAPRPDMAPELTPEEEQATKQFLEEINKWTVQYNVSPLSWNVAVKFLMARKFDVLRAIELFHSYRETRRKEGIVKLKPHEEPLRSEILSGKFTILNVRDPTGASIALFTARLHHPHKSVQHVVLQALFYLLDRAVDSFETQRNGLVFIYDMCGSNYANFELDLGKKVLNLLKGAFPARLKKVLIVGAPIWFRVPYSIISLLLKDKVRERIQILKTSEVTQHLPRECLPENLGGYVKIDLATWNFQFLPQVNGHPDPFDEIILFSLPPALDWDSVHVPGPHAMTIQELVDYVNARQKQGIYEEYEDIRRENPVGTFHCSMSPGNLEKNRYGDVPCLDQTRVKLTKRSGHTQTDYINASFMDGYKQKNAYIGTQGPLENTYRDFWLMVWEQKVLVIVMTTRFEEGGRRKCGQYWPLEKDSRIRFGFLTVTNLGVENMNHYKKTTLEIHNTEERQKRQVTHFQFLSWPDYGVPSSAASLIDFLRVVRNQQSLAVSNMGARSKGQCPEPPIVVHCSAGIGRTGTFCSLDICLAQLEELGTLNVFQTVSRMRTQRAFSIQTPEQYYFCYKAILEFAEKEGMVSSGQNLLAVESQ
As for the experimental part:
(§1) Enzymatic reactions were initiated by the addition of SHP2 (final concentration of 10 nM) to a solution of each of the 658 phytochemical compounds (final concentration of 20 µM) in reaction buffer (20 mM bis-tris pH 6.0, 150 mM NaCl, 2.5 mM dithiothreitol, and 0.01% Triton X-100) containing DiFMUP (final concentration of 140 µM). Changes in the fluorescence intensities were measured continuously for 10 min at Ex/Em = 355/460 nm on a VictorTM X4 multilabel plate reader. Enzyme inhibition was estimated by comparing the reaction velocity in the presence of each compound with that in the absence of any compound. Inhibition of the other PTPs was measured in the same way. Next, we established a screening strategy using a DiFMUP substrate to identify a natural product that inhibits SHP2 activity. Initially, we screened 658 compounds at 20 µM using a 96-well plate system (Figure 2A). […] The selected compounds were tested at 20 µM for SHP2 inhibition, and 14 additional non-receptor-type PTPs (PTP1B, TCPTP, PTPH1, STEP, SHP1, HePTP, PTP-MEG2, PTP-PEST, PTP-BAS, PTP36, PTP-HSCF, PTPD1, LYP, and HD-PTP) were used to investigate the inhibition selectivity. The results were visualized using a heat map analysis by GraphPad Prism (Figure 2B and Table S2 in Supplementary Materials). To identify new SHP2 anticancer natural products, we first performed cloning to express SHP2 protein and then purified it. PTPN11 (Gene ID: 5781) encoding human SHP2 (amino acids sequences 1 to 526) with several extra amino acids were cloned into the MBP-pET 28a (+) vector, which was successfully used to overexpress PTPs with enhanced solubility in an Escherichia coli expression system. Information on amino acids for 15 non-receptor-type PTPs including SHP2 is summarized in Table S3 in the Supplementary Materials. SHP2 was overexpressed in RosettaTM (DE3) and purified using a metal affinity resin (Figure S1 in Supplementary Materials). […] The kcat, KM, and kcat/KM values were determined to be 270 min^−1, 70 μM, and 3.9 μM^−1min^−1, respectively, using the Lineweaver–Burk plot analysis (Table S1 in Supplementary Materials).

Another experiment deals with T2, PTPN2 (TCPTP) (Homo sapiens, UniProt P17706).
T2 construct: 1-387
T2 sequence (P17706 1-415): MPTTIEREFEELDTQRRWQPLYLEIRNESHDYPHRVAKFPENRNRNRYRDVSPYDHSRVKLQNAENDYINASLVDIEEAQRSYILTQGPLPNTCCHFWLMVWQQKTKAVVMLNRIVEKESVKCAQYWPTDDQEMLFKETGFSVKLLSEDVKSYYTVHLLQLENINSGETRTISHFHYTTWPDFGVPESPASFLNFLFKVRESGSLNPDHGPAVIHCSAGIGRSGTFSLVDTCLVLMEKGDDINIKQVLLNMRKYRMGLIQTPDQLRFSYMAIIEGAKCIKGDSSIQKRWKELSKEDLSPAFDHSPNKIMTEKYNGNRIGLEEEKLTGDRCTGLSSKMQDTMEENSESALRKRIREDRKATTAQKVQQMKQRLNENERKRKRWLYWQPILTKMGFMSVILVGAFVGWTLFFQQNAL
The method, then:
as §1

The next experiment deals with T3, PTPN1 (PTP1B) (Homo sapiens, UniProt P18031).
T3 construct: 1-299
T3 sequence (P18031 1-435): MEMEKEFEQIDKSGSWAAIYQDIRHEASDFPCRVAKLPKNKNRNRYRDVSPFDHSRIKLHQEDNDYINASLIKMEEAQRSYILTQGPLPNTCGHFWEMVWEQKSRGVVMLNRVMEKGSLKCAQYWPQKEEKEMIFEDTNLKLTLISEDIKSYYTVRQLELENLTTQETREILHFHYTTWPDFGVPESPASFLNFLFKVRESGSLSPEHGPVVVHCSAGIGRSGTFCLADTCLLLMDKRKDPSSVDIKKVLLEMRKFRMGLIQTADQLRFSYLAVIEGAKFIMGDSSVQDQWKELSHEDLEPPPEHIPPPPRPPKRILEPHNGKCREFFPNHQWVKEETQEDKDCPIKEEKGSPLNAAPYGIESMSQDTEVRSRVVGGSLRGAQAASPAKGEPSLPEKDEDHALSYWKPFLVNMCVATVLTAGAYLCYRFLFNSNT
As for the experimental part:
as §1

Turning to `C[C@@H]1CC[C@@]2(OC1)O[C@H]1C[C@H]3[C@@H]4CC=C5C[C@@H](O[C@@H]6O[C@H](CO)[C@@H](O[C@@H]7O[C@@H](CO)[C@H](O)[C@H]7O)[C@H](O)[C@H]6O[C@@H]6O[C@@H](C)[C@H](O)[C@@H](O)[C@H]6O)CC[C@]5(C)[C@H]4CC[C@]3(C)[C@H]1[C@@H]2C` [polyphyllin D], the inhibition at 20 µM on PTPN9 (PTP-MEG2) came out at 0%; on PTPN2 (TCPTP) it was 7.5%; on PTPN1 (PTP1B) it was 0%.

The record behind these values is paper PMC7915588, “Polyphyllin D Shows Anticancer Effect through a Selective Inhibition of Src Homology Region 2-Containing Protein Tyrosine Phosphatase-2 (SHP2)” (Molecules, 2021).
